# Molecular target: T1, Bile acid receptor (Homo sapiens) (UniProt Q96RI1)
# T1 sequence (whole entry): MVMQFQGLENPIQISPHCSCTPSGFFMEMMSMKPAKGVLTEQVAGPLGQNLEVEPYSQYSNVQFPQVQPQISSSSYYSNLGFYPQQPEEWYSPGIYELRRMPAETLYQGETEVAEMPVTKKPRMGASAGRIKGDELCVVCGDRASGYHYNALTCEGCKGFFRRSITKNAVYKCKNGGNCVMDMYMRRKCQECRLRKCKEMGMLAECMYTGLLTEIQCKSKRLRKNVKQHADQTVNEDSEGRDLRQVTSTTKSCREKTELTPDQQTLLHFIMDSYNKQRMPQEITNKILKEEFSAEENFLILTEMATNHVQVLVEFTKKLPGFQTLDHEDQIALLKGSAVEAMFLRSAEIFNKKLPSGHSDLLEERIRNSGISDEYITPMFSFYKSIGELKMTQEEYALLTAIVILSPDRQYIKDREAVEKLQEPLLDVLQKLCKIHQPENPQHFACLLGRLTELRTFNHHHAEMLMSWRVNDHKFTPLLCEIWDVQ
# Test: Agonist activity at human FXR assessed as SRC1 peptide interaction with receptor ligand binding domain by FRET assay relative to GW-4064
# Conditions: not given
row,%max [%],Compound
1,99,Cc1cc(Cl)cc(C)c1OCc1noc(C(C)C)c1COc1ccc(/C=C/c2cccc(C(=O)O)c2)c(Cl)c1
2,65,CC(C)c1onc(COc2ccc3ccccc3c2)c1COc1ccc(/C=C/c2cccc(C(=O)O)c2)c(Cl)c1
3,100,CC(C)c1onc(-c2c(Cl)cccc2Cl)c1COc1ccc(/C=C/c2cccc(C(=O)O)c2)c(Cl)c1
4,104,CC(C)c1onc(CNc2c(Cl)cccc2Cl)c1COc1ccc(/C=C/c2cccc(C(=O)O)c2)c(Cl)c1
5,81,O=C(O)c1cccc(/C=C/c2ccc(OCc3c(-c4c(Cl)cccc4Cl)noc3C3CCCC3)cc2Cl)c1
6,51,CC(C)c1onc(COc2cccc(Cl)c2)c1COc1ccc(/C=C/c2cccc(C(=O)O)c2)c(Cl)c1
7,40,CC(C)c1onc(COc2cc(Cl)cc(Cl)c2)c1COc1ccc(/C=C/c2cccc(C(=O)O)c2)c(Cl)c1
8,72,CC(C)c1onc(COc2ccc(Cl)cc2Cl)c1COc1ccc(/C=C/c2cccc(C(=O)O)c2)c(Cl)c1
9,110,CC(C)c1onc(CSc2c(Cl)cccc2Cl)c1COc1ccc(/C=C/c2cccc(C(=O)O)c2)c(Cl)c1
10,38,CC(C)c1onc([C@H]2C[C@@H]2c2c(Cl)cccc2Cl)c1COc1ccc(/C=C/c2cccc(C(=O)O)c2)c(Cl)c1 (relative stereo)
11,82,CC(C)c1onc(COc2ccccc2Cl)c1COc1ccc(/C=C/c2cccc(C(=O)O)c2)c(Cl)c1
12,44,CC(C)c1onc(CCCc2ccccc2)c1COc1ccc(/C=C/c2cccc(C(=O)O)c2)c(Cl)c1
13,100,CC[C@@H](C)c1onc(-c2c(Cl)cccc2Cl)c1COc1ccc(/C=C/c2cccc(C(=O)O)c2)c(Cl)c1
14,67,O=C(O)c1cccc(/C=C/c2ccc(OCc3c(-c4c(Cl)cccc4Cl)noc3C3CCC3)cc2Cl)c1
15,96,CC[C@H](C)c1onc(-c2c(Cl)cccc2Cl)c1COc1ccc(/C=C/c2cccc(C(=O)O)c2)c(Cl)c1
16,57,CC(C)c1onc(COc2ccc(Cl)c(Cl)c2)c1COc1ccc(/C=C/c2cccc(C(=O)O)c2)c(Cl)c1
17,22,CC(C)c1onc(CO)c1COc1ccc(/C=C/c2cccc(C(=O)O)c2)c(Cl)c1
18,110,Cc1cccc(C)c1OCc1noc(C(C)C)c1COc1ccc(/C=C/c2cccc(C(=O)O)c2)c(Cl)c1
19,82,CCC(CC)c1onc(-c2c(Cl)cccc2Cl)c1COc1ccc(/C=C/c2cccc(C(=O)O)c2)c(Cl)c1
20,55,CC(C)c1onc(COc2ccccc2)c1COc1ccc(/C=C/c2cccc(C(=O)O)c2)c(Cl)c1

# Molecular target: T2, Bile acid receptor (Homo sapiens, UniProt Q96RI1)
# T2 sequence (Q96RI1 whole entry): T1 sequence (whole entry)
# Test: Agonist activity at human FXR transfected in african green monkey CV1 cells by luciferase reporter gene transient transfection assay
# Type: functional, cell-based, CV-1
# Conditions: not given
row,EC50 [µM],Compound
1,0.11,Cc1cc(Cl)cc(C)c1OCc1noc(C(C)C)c1COc1ccc(/C=C/c2cccc(C(=O)O)c2)c(Cl)c1
2,2.3,CC(C)c1onc(COc2ccc3ccccc3c2)c1COc1ccc(/C=C/c2cccc(C(=O)O)c2)c(Cl)c1
3,0.14,CC(C)c1onc(CNc2c(Cl)cccc2Cl)c1COc1ccc(/C=C/c2cccc(C(=O)O)c2)c(Cl)c1
4,0.24,O=C(O)c1cccc(/C=C/c2ccc(OCc3c(-c4c(Cl)cccc4Cl)noc3C3CCCC3)cc2Cl)c1
5,0.69,CC(C)c1onc(COc2ccc(Cl)cc2Cl)c1COc1ccc(/C=C/c2cccc(C(=O)O)c2)c(Cl)c1
6,0.1,CC(C)c1onc(CSc2c(Cl)cccc2Cl)c1COc1ccc(/C=C/c2cccc(C(=O)O)c2)c(Cl)c1
7,1.2,CC(C)c1onc(CCCc2ccccc2)c1COc1ccc(/C=C/c2cccc(C(=O)O)c2)c(Cl)c1
8,0.093,CC[C@@H](C)c1onc(-c2c(Cl)cccc2Cl)c1COc1ccc(/C=C/c2cccc(C(=O)O)c2)c(Cl)c1
9,0.14,O=C(O)c1cccc(/C=C/c2ccc(OCc3c(-c4c(Cl)cccc4Cl)noc3C3CCC3)cc2Cl)c1
10,0.29,CC[C@H](C)c1onc(-c2c(Cl)cccc2Cl)c1COc1ccc(/C=C/c2cccc(C(=O)O)c2)c(Cl)c1
11,> 10,CC(C)c1onc(CO)c1COc1ccc(/C=C/c2cccc(C(=O)O)c2)c(Cl)c1
12,0.056,Cc1cccc(C)c1OCc1noc(C(C)C)c1COc1ccc(/C=C/c2cccc(C(=O)O)c2)c(Cl)c1
13,1.2,CC(C)c1onc(COc2ccccc2)c1COc1ccc(/C=C/c2cccc(C(=O)O)c2)c(Cl)c1

# Molecular target: T2, Bile acid receptor
# Test: Agonist activity at human FXR assessed as SRC1 coactivator peptide recruitment by cell free FRET assay
# Type: functional
# Conditions: not given
row,EC50 [µM],Compound
1,2,CC(C)c1onc(COc2cccc(Cl)c2)c1COc1ccc(/C=C/c2cccc(C(=O)O)c2)c(Cl)c1
2,> 10,CC(C)c1onc(COc2cc(Cl)cc(Cl)c2)c1COc1ccc(/C=C/c2cccc(C(=O)O)c2)c(Cl)c1
3,> 10,CC(C)c1onc([C@H]2C[C@@H]2c2c(Cl)cccc2Cl)c1COc1ccc(/C=C/c2cccc(C(=O)O)c2)c(Cl)c1 (relative stereo)
4,0.082,CC(C)c1onc(COc2ccccc2Cl)c1COc1ccc(/C=C/c2cccc(C(=O)O)c2)c(Cl)c1
5,> 10,CC(C)c1onc(COc2ccc(Cl)c(Cl)c2)c1COc1ccc(/C=C/c2cccc(C(=O)O)c2)c(Cl)c1
6,0.28,CCC(CC)c1onc(-c2c(Cl)cccc2Cl)c1COc1ccc(/C=C/c2cccc(C(=O)O)c2)c(Cl)c1

# Molecular target: T2, Bile acid receptor
# Test: Agonist activity at human FXR assessed as SRC1 peptide interaction with receptor ligand binding domain by FRET assay
# Conditions: not given
row,EC50 [µM],Compound
1,0.13,Cc1cc(Cl)cc(C)c1OCc1noc(C(C)C)c1COc1ccc(/C=C/c2cccc(C(=O)O)c2)c(Cl)c1
2,0.93,CC(C)c1onc(COc2ccc3ccccc3c2)c1COc1ccc(/C=C/c2cccc(C(=O)O)c2)c(Cl)c1
3,0.072,CC(C)c1onc(CNc2c(Cl)cccc2Cl)c1COc1ccc(/C=C/c2cccc(C(=O)O)c2)c(Cl)c1
4,0.56,O=C(O)c1cccc(/C=C/c2ccc(OCc3c(-c4c(Cl)cccc4Cl)noc3C3CCCC3)cc2Cl)c1
5,0.31,CC(C)c1onc(COc2cccc(Cl)c2)c1COc1ccc(/C=C/c2cccc(C(=O)O)c2)c(Cl)c1
6,1.1,CC(C)c1onc(COc2cc(Cl)cc(Cl)c2)c1COc1ccc(/C=C/c2cccc(C(=O)O)c2)c(Cl)c1
7,0.62,CC(C)c1onc(COc2ccc(Cl)cc2Cl)c1COc1ccc(/C=C/c2cccc(C(=O)O)c2)c(Cl)c1
8,0.051,CC(C)c1onc(CSc2c(Cl)cccc2Cl)c1COc1ccc(/C=C/c2cccc(C(=O)O)c2)c(Cl)c1
9,2,CC(C)c1onc([C@H]2C[C@@H]2c2c(Cl)cccc2Cl)c1COc1ccc(/C=C/c2cccc(C(=O)O)c2)c(Cl)c1 (relative stereo)
10,0.46,CC(C)c1onc(COc2ccccc2Cl)c1COc1ccc(/C=C/c2cccc(C(=O)O)c2)c(Cl)c1
11,4.4,CC(C)c1onc(CCCc2ccccc2)c1COc1ccc(/C=C/c2cccc(C(=O)O)c2)c(Cl)c1
12,0.105,CC[C@@H](C)c1onc(-c2c(Cl)cccc2Cl)c1COc1ccc(/C=C/c2cccc(C(=O)O)c2)c(Cl)c1
13,0.41,O=C(O)c1cccc(/C=C/c2ccc(OCc3c(-c4c(Cl)cccc4Cl)noc3C3CCC3)cc2Cl)c1
14,0.19,CC[C@H](C)c1onc(-c2c(Cl)cccc2Cl)c1COc1ccc(/C=C/c2cccc(C(=O)O)c2)c(Cl)c1
15,1.1,CC(C)c1onc(COc2ccc(Cl)c(Cl)c2)c1COc1ccc(/C=C/c2cccc(C(=O)O)c2)c(Cl)c1
16,7.8,CC(C)c1onc(CO)c1COc1ccc(/C=C/c2cccc(C(=O)O)c2)c(Cl)c1
17,0.017,Cc1cccc(C)c1OCc1noc(C(C)C)c1COc1ccc(/C=C/c2cccc(C(=O)O)c2)c(Cl)c1
18,2.2,CCC(CC)c1onc(-c2c(Cl)cccc2Cl)c1COc1ccc(/C=C/c2cccc(C(=O)O)c2)c(Cl)c1
19,1.1,CC(C)c1onc(COc2ccccc2)c1COc1ccc(/C=C/c2cccc(C(=O)O)c2)c(Cl)c1

# Molecular target: T1, Bile acid receptor (Homo sapiens)
# Test: Agonist activity at human FXR transfected in african green monkey CV1 cells by luciferase reporter gene transient transfection assay relative to GW-4064
# Type: functional, cell-based
# Conditions: CV-1
row,%max [%],Compound
1,66,Cc1cc(Cl)cc(C)c1OCc1noc(C(C)C)c1COc1ccc(/C=C/c2cccc(C(=O)O)c2)c(Cl)c1
2,27,CC(C)c1onc(COc2ccc3ccccc3c2)c1COc1ccc(/C=C/c2cccc(C(=O)O)c2)c(Cl)c1
3,100,CC(C)c1onc(-c2c(Cl)cccc2Cl)c1COc1ccc(/C=C/c2cccc(C(=O)O)c2)c(Cl)c1
4,70,CC(C)c1onc(CNc2c(Cl)cccc2Cl)c1COc1ccc(/C=C/c2cccc(C(=O)O)c2)c(Cl)c1
5,75,O=C(O)c1cccc(/C=C/c2ccc(OCc3c(-c4c(Cl)cccc4Cl)noc3C3CCCC3)cc2Cl)c1
6,42,CC(C)c1onc(COc2cccc(Cl)c2)c1COc1ccc(/C=C/c2cccc(C(=O)O)c2)c(Cl)c1
7,39,CC(C)c1onc(COc2ccc(Cl)cc2Cl)c1COc1ccc(/C=C/c2cccc(C(=O)O)c2)c(Cl)c1
8,86,CC(C)c1onc(CSc2c(Cl)cccc2Cl)c1COc1ccc(/C=C/c2cccc(C(=O)O)c2)c(Cl)c1
9,71,CC(C)c1onc(COc2ccccc2Cl)c1COc1ccc(/C=C/c2cccc(C(=O)O)c2)c(Cl)c1
10,68,CC(C)c1onc(CCCc2ccccc2)c1COc1ccc(/C=C/c2cccc(C(=O)O)c2)c(Cl)c1
11,105,CC[C@@H](C)c1onc(-c2c(Cl)cccc2Cl)c1COc1ccc(/C=C/c2cccc(C(=O)O)c2)c(Cl)c1
12,100,O=C(O)c1cccc(/C=C/c2ccc(OCc3c(-c4c(Cl)cccc4Cl)noc3C3CCC3)cc2Cl)c1
13,99,CC[C@H](C)c1onc(-c2c(Cl)cccc2Cl)c1COc1ccc(/C=C/c2cccc(C(=O)O)c2)c(Cl)c1
14,118,Cc1cccc(C)c1OCc1noc(C(C)C)c1COc1ccc(/C=C/c2cccc(C(=O)O)c2)c(Cl)c1
15,71,CCC(CC)c1onc(-c2c(Cl)cccc2Cl)c1COc1ccc(/C=C/c2cccc(C(=O)O)c2)c(Cl)c1
16,27,CC(C)c1onc(COc2ccccc2)c1COc1ccc(/C=C/c2cccc(C(=O)O)c2)c(Cl)c1

# System: not listed separately
# Test: Terminal half life in iv dosed rat
# Type: ADME, organism-based
# Conditions: in vivo, read-out: beta t1/2
row,half-life [h],Compound
1,2.33,CC(C)c1onc(CNc2c(Cl)cccc2Cl)c1COc1ccc(/C=C/c2cccc(C(=O)O)c2)c(Cl)c1

# System: not listed separately
# Test: Total clearance in iv dosed rat
# Type: ADME, organism-based
# Conditions: in vivo
row,clearance [L/h/kg],Compound
1,2.16,CC(C)c1onc(-c2c(Cl)cccc2Cl)c1COc1ccc(/C=C/c2cccc(C(=O)O)c2)c(Cl)c1
2,0.96,CC(C)c1onc(CNc2c(Cl)cccc2Cl)c1COc1ccc(/C=C/c2cccc(C(=O)O)c2)c(Cl)c1

# System: not listed separately
# Test: Volume of distribution at steady state in iv dosed rat
# Type: ADME, organism-based
# Conditions: in vivo, read-out: Vdss
row,Vd [L/kg],Compound
1,2.1,CC(C)c1onc(CNc2c(Cl)cccc2Cl)c1COc1ccc(/C=C/c2cccc(C(=O)O)c2)c(Cl)c1

# System: not listed separately
# Test: Oral bioavailability in rat
# Type: ADME, organism-based
# Conditions: in vivo
row,bioavailability [%],Compound
1,2.6,CC(C)c1onc(CNc2c(Cl)cccc2Cl)c1COc1ccc(/C=C/c2cccc(C(=O)O)c2)c(Cl)c1

# — ChEMBL document CHEMBL1136905, “Substituted isoxazole analogs of farnesoid X receptor (FXR) agonist GW4064” (Bioorg Med Chem Lett, 2009)
